pIC50: −log10 of the molar value.

Test [1] has as its target CDK4-CYCLIND1 (Homo sapiens, UniProt P11802). Kind of test: Microfluidic LabChip kinase inhibition assay, CDK4-CyclinD1. The conditions noted are these: CDK4 IC50 (μM), Table 2; 200 μM ATP, 1 nM enzyme.
In test [2] the target is T1, CDK6-CYCLIND3 (Homo sapiens, UniProt Q00534).
T1 construct: purchased Carna
Briefly: Microfluidic LabChip kinase inhibition assay, CDK6-CyclinD3. It is filed as biochemical. To be noted: Table 2; 300 μM ATP, 2 nM enzyme; read-out: CDK6 IC50.

Sequence of CDK4-CYCLIND1 (P11802 whole entry): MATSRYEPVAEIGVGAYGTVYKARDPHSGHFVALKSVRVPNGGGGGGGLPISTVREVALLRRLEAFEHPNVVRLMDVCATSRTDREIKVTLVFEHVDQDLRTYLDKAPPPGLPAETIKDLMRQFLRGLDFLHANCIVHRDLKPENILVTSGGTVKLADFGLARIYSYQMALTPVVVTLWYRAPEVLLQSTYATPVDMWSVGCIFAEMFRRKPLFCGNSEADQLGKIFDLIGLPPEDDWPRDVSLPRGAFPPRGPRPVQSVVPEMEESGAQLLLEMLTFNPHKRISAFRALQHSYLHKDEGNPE
Sequence of CDK4-CYCLIND1 (P24385 whole entry partner): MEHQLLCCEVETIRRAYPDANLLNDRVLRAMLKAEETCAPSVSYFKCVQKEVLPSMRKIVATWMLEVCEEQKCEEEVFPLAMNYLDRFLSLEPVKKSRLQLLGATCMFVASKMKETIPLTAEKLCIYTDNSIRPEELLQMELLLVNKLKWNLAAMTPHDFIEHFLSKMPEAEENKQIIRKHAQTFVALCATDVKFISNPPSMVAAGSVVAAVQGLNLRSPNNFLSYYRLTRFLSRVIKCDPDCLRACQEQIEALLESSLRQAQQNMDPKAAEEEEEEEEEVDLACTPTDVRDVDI
T1 sequence (Q00534 whole entry): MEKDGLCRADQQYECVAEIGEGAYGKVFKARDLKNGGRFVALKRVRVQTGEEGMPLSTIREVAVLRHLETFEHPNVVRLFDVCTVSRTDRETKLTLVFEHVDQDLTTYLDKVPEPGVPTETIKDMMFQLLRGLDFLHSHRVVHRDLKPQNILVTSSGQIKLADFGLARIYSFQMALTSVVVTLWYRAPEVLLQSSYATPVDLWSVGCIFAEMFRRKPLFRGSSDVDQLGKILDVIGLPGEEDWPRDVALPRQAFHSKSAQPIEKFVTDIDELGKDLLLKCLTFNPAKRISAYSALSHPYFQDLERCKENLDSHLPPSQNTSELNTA
T1 sequence (P30281 whole entry partner): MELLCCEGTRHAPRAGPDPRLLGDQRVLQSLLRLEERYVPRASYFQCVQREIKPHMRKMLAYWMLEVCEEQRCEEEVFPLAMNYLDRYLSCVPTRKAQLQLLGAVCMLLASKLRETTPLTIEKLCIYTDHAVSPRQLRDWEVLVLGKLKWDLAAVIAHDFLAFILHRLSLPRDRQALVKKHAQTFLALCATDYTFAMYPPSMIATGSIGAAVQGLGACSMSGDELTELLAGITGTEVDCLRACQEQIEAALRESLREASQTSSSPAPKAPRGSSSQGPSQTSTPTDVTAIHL

For `O=C1CC2(Cc3cnc(Nc4ccc(N5CCNCC5)cc4)nc3N2C2CCCC2)C(=O)N1` (centres unmarked) [Compound C77, 7′-cyclopentyl-2′-((4-(piperazin-1-yl)phenyl)amino)-5′,7′-dihydrospiro[pyrrolidine-3,6′-pyrrolo[2,3-d]pyrimidine]-2,5-dione], the concentration for half-maximal inhibition (IC50) – broadly, the point on the concentration scale where inhibition reaches its midpoint – in test [1] worked out at 0.0251 µM. In addition, in test [2], the negative-log IC50 (pIC50) (commonly the negative decadic logarithm of the IC50, by convention in mol/L) is 6.88.
With `CN1CCN(c2ccc(Nc3ncc4c(n3)N(C3CCCC3)C3(CC(=O)NC3=O)C4)cc2)CC1` (centres unmarked) [Compound C78, 7-cyclopentyl-2′-((4(4-methylpiperazin-1-yl)phenyl)amino)-5′,7′-dihydrospiro[pyrrolidine-3,6′-pyrrolo[2,3-d]pyrimidine]-2,5-dione], the IC50 in test [1] was found to be 0.0667 µM. Besides, in test [2], the pIC50 was 6.46.
Consider `CC(C)N1CCN(c2ccc(Nc3ncc4c(n3)N(C3CCCC3)C3(CC(=O)NC3=O)C4)cc2)CC1` (centres unmarked) [Compound C79, 7′-cyclopentyl-2′-((4-(4-isopropylpiperazin-1-yl)phenyl)amino)-5′,7′-dihydrospiro[pyrrolidine-3,6′-pyrrolo[2,3-d]pyrimidine]-2,5-dione], for which the IC50 in test [1] was found to be 0.021 µM. Besides, the negative logarithm of the IC50 (pIC50) in test [2] is 6.89.
For `O=C1CC2(Cc3cnc(Nc4ccc(N5CCNCC5)c(F)c4)nc3N2C2CCCC2)C(=O)N1` (centres unmarked) [Compound C80, 7′-cyclopentyl-2′-((3-fluoro-4-(piperazin-1-yl)phenyl)amino)-5′,7′-dihydrospiro[pyrrolidine-3,6′-pyrrolo[2,3-d]pyrimidine]-2,5-dione], the IC50 in test [1] is 0.0134 µM. Also, the negative logarithm of the IC50 (pIC50) in test [2] is 7.10.
For the compound `CN1CCN(c2ccc(Nc3ncc4c(n3)N(C3CCCC3)C3(CC(=O)NC3=O)C4)cc2F)CC1` (centres unmarked) [Compound C81, 7′-cyclopentyl-2′-((3-fluoro-4-(4-methylpiperazin-1-yl)phenyl)amino)-5′,7′-dihydrospiro[pyrrolidine-3,6′-pyrrolo[2,3-d]pyrimidine]-2,5-dione], in test [1], the IC50 worked out at 0.0162 µM. Further, the pIC50 in test [2] was 7.13.
On the same counts, the results for `CC(C)N1CCN(c2ccc(Nc3ncc4c(n3)N(C3CCCC3)C3(CC(=O)NC3=O)C4)cc2F)CC1` (centres unmarked) [Compound C82, 7′-cyclopentyl-2′-((3-fluoro-4-(4-isopropylpiperazin-1-yl)phenyl)amino)-5′,7′-dihydrospiro[pyrrolidine-3,6′-pyrrolo[2,3-d]pyrimidine]-2,5-dione] are 0.0222 µM and 6.91.
In test [1], `O=C1CC2(Cc3cnc(Nc4ccc(N5CCNCC5)nc4)nc3N2C2CCCC2)C(=O)N1` (centres unmarked) [Compound C83, 7′-cyclopentyl-2′-((6-(piperazin-1-yl)pyridin-3-yl)amino)-5′,7′-dihydrospiro[pyrrolidine-3,6′-pyrrolo[2,3-d]pyrimidine]-2,5-dione] came in with a half-inhibitory concentration (IC50) of 0.0516 µM. Besides, the pIC50 in test [2] is 6.77.
Compound `CN1CCN(c2ccc(Nc3ncc4c(n3)N(C3CCCC3)C3(CC(=O)NC3=O)C4)cn2)CC1` (centres unmarked) [Compound C84, 7′-cyclopentyl-2′-((6-(4-methylpiperazin-1-yl)pyridin-3-yl)amino)-5′,7′-dihydrospiro[pyrrolidine-3,6′-pyrrolo[2,3-d]pyrimidine]-2,5-dione] registered an IC50 in test [1] of 0.0399 µM. Besides, the negative logarithm of the IC50 (pIC50) in test [2] was 6.76.
On the same counts, the results for `CC(C)N1CCN(c2ccc(Nc3ncc4c(n3)N(C3CCCC3)C3(CC(=O)NC3=O)C4)cn2)CC1` (centres unmarked) [Compound C85, 7′-cyclopentyl-2′-((6-(4-isopropylpiperazin-1-yl)pyridin-3-yl)amino)-5′,7′-dihydrospiro[pyrrolidine-3,6′-pyrrolo[2,3-d]pyrimidine]-2,5-dione] are 0.0489 µM and 6.67.
On the same counts, the results for `O=C1CC2(Cc3cnc(Nc4ccc(N5CCOCC5)c(F)c4)nc3N2C2CCCC2)C(=O)N1` (centres unmarked) [Compound C86, 7′-cyclopentyl-2′-((3-fluoro-4-morpholinophenyl)amino)-5′,7′-dihydrospiro[pyrrolidine-3,6′-pyrrolo[2,3-d]pyrimidine]-2,5-dione] are 0.101 µM and 6.34.
Regarding `CN1CCN(c2ccc(Nc3ncc4c(n3)N(C3CCCC3)C3(CC(=O)NC3=O)C4)c(F)c2)CC1` (centres unmarked) [Compound C87, 7′-cyclopentyl-2′-((2-fluoro-4-(4-methylpiperazin-1-yl)phenyl)amino)-5′,7′-dihydrospiro[pyrrolidine-3,6′-pyrrolo[2,3-d]pyrimidine]-2,5-dione], the IC50 in test [1] came to 14.9 µM. In test [2], the pIC50 was 4.11.
On the same counts, the results for `CN(C)CCOc1ccc(Nc2ncc3c(n2)N(C2CCCC2)C2(CC(=O)NC2=O)C3)cn1` (centres unmarked) [Compound C88, 7′-cyclopentyl-2′-((6-(2-(dimethylamino)ethoxy)pyridin-3-yl)amino)-5′,7′-dihydrospiro[pyrrolidine-3,6′-pyrrolo[2,3-d]pyrimidine]-2,5-dione] are 0.097 µM and 6.44.
In test [1], `CN(C)CCOc1ccc(Nc2ncc3c(n2)N(C2CCCC2)C2(CC(=O)NC2=O)C3)cc1` (centres unmarked) [Compound C89, 7′-cyclopentyl-2′-((4-(2-(dimethylamino)ethoxy)phenyl)amino)-5′,7′-dihydrospiro[pyrrolidine-3,6′-pyrrolo[2,3-d]pyrimidine]-2,5-dione] yielded an IC50 of 0.143 µM. Further, the negative logarithm of the IC50 (pIC50) in test [2] was 6.25.
Consider `O=C1CC2(Cc3cnc(Nc4ccc(OCCN5CCCC5)nc4)nc3N2C2CCCC2)C(=O)N1` (centres unmarked) [Compound C90, 7′-cyclopentyl-2′-((6-(2-(pyrrolidin-1-yl)ethoxy)pyridin-3-yl)amino)-5′,7′-dihydrospiro[pyrrolidine-3,6′-pyrrolo[2,3-d]pyrimidine]-2,5-dione], for which, in test [1], the IC50 is 0.072 µM. Moreover, in test [2], the negative logarithm of the IC50 (pIC50) was 6.59.
The compound `O=C1CC2(Cc3cnc(Nc4ccc(OCCN5CCCC5)c(F)c4)nc3N2C2CCCC2)C(=O)N1` (centres unmarked) [Compound C91, 7′-cyclopentyl-2′-((3-fluoro-4-(2-(pyrrolidin-1-yl)ethoxy)phenyl)amino)-5′,7′-dihydrospiro[pyrrolidine-3,6′-pyrrolo[2,3-d]pyrimidine]-2,5-dione] yielded an IC50 in test [1] of 0.0554 µM. In test [2], the pIC50 was 6.62.
`CN(C)CCOc1ccc(Nc2ncc3c(n2)N(C2CCCC2)C2(CC(=O)NC2=O)C3)nc1` (centres unmarked) [Compound C92, 7′-cyclopentyl-2′-((5-(2-(dimethylamino)ethoxy)pyridin-2-yl)amino)-5′,7′-dihydrospiro[pyrrolidine-3,6′-pyrrolo[2,3-d]pyrimidine]-2,5-dione] had a concentration for half-maximal inhibition (IC50) in test [1] of 0.0831 µM. The pIC50 in test [2] is 7.02.
On the same counts, the results for `O=C1CC2(Cc3cnc(Nc4ccc(C5=CCNCC5)cn4)nc3N2C2CCCC2)C(=O)N1` (centres unmarked) [Compound C93, 7′-cyclopentyl-2′-((1′,2′,3′,6′-tetrahydro-[3,4′-bipyridin]-6-yl)amino)-5′,7′-dihydrospiro[pyrrolidine-3,6′-pyrrolo[2,3-d]pyrimidine]-2,5-dione] are 6.84 µM and 4.50.
On the same counts, the results for `CC(C)N1CC=C(c2ccc(Nc3ncc4c(n3)N(C3CCCC3)C3(CC(=O)NC3=O)C4)nc2)CC1` (centres unmarked) [Compound C94, 7′-cyclopentyl-2′-((1′-isopropyl-1′,2′,3′,6′-tetrahydro-[3,4′-bipyridin]-6-yl)amino)-5′,7′-dihydrospiro[pyrrolidine-3,6′-pyrrolo[2,3-d]pyrimidine]-2,5-dione] are 0.0462 µM and 7.34.
`O=C1NCCC12Cc1cnc(Nc3ccc(N4CCC(N5CCOCC5)CC4)cc3)nc1N2C1CCCC1` (centres unmarked) [Compound C95, 7′-cyclopentyl-2′-((4-(4-morpholinopiperidin-1-yl)phenyl)amino)-5′,7′-dihydrospiro[pyrrolidine-3,6′-pyrrolo[2,3-d]pyrimidin]-2-one] returned an IC50 in test [1] of 0.273 µM. Moreover, the pIC50 in test [2] was 6.00.
On the same counts, the results for `O=C1NCCC12Cc1cnc(Nc3ccc(N4CCC(N5CCOCC5)CC4)nc3)nc1N2C1CCCC1` (centres unmarked) [Compound C96, 7′-cyclopentyl-2′-((6-(4-morpholinopiperidin-1-yl)pyridin-3-yl)amino)-5′,7′-dihydrospiro[pyrrolidine-3,6′-pyrrolo[2,3-d]pyrimidin]-2-one] are 0.142 µM and 6.31.
`O=C1NCCC12Cc1cnc(Nc3ccc(N4CCC(N5CCOCC5)CC4)c(F)c3)nc1N2C1CCCC1` (centres unmarked) [Compound C97, 7′-cyclopentyl-2′-((3-fluoro-4-(4-morpholinopiperidin-1-yl)phenyl)amino)-5′,7′-dihydrospiro[pyrrolidine-3,6′-pyrrolo[2,3-d]pyrimidin]-2-one] showed a 50% inhibitory concentration (IC50) in test [1] of 0.0747 µM. Moreover, in test [2], the negative logarithm of the IC50 (pIC50) was 6.54.
On the same counts, the results for `CN1CCN(c2ccc(Nc3ncc4c(n3)N(C3CCCC3)C(=O)C43CCNC3=O)nc2)CC1` (centres unmarked) [Compound C100, 7′-cyclopentyl-2′-((5-(4-methylpiperazin-1-yl)pyridin-2-yl)amino)spiro[pyrrolidine-3,5′-pyrrolo[2,3-d]pyrimidine]-2,6′(7′H)-dione] are 13.7 µM and 4.48.
On to `CN1CCN(c2ccc(Nc3ncc4c(n3)N(C3CCCC3)C(=O)C43CCNC3=O)cc2)CC1` (centres unmarked) [Compound C101, 7′-cyclopentyl-2′-((4-(4-methylpiperazin-1-yl)phenyl)amino)spiro[pyrrolidine-3,5′-pyrrolo[2,3-d]pyrimidine]-2,6′(7′H)-dione], for which the 50% inhibitory concentration (IC50) in test [1] worked out at 21 µM. The negative-log IC50 (pIC50) in test [2] is 4.36.
For `O=C1NCCC12C(=O)N(C1CCCC1)c1nc(Nc3ccc(N4CCNCC4)c(F)c3)ncc12` (centres unmarked) [Compound C102, 7′-cyclopentyl-2′-((3-fluoro-4-(piperazin-1-yl)phenyl)amino)spiro[pyrrolidine-3,5′-pyrrolo[2,3-d]pyrimidine]-2,6′(7′H)-dione] the same measures were 21.8 µM and 4.59.
Consider `CN1CCN(c2ccc(Nc3ncc4c(n3)N(C3CCCC3)C(=O)C43CCNC3=O)cc2F)CC1` (centres unmarked) [Compound C103, 7′-cyclopentyl-2′-((3-fluoro-4-(4-methylpiperazin-1-yl)phenyl)amino)spiro[pyrrolidine-3,5′-pyrrolo[2,3-d]pyrimidine]-2,6′(7′H)-dione], for which the 50% inhibitory concentration (IC50) in test [1] stood at 20 µM. Also, the pIC50 in test [2] was 4.29.

The values above are taken from patent US20230065740A1, “CYCLIN-DEPENDENT KINASE INHIBITORS” (SPV THERAPEUTICS INC., priority 2018, published 2023).
